Measurements: ChEMBL document CHEMBL4049439, “Synthesis and Characterization of Tetrahydropyran-Based Bacterial Topoisomerase Inhibitors with Antibacterial Activity against Gram-Negative Bacteria” (J Med Chem, 2017)
Converted amounts (≈) assume the structure as drawn. The source made the active and inactive calls. The rule behind the calls is not given here.

What was measured:
Acinetobacter baumannii [1] = assay: (§1) Inhibition of wild-type Acinetobacter baumannii DNA topoisomerase-4 mediated supercoiled pBR322 DNA relaxation by ethidium bromide based agarose gel electrophoresis
Acinetobacter baumannii [2] = assay: (§2) Inhibition of wild-type Acinetobacter baumannii DNA gyrase supercoiling activity using relaxed pBR322 DNA as substrate by ethidium bromide based agarose gel electrophoresis
Pseudomonas aeruginosa [3] = assay: (§3) Inhibition of wild-type Pseudomonas aeruginosa DNA gyrase supercoiling activity using relaxed pBR322 DNA as substrate by ethidium bromide based agarose gel electrophoresis
Pseudomonas aeruginosa [4] = assay: (§4) Inhibition of wild-type Pseudomonas aeruginosa DNA topoisomerase-4 mediated supercoiled pBR322 DNA relaxation by ethidium bromide based agarose gel electrophoresis
[5] = as §1
[6] = Inhibition of wild-type Escherichia coli DNA topoisomerase-4 mediated supercoiled pBR322 DNA relaxation by ethidium bromide based agarose gel electrophoresis
Staphylococcus aureus = assay: Antibacterial activity against Staphylococcus aureus ATCC 29213 by CLSI broth microdilution method; assay type: functional
Escherichia coli = assay: Antibacterial activity against wild-type Escherichia coli ATCC 25922 by CLSI broth microdilution method; assay type: functional
Acinetobacter baumannii [7] = assay: Antibacterial activity against fluoroquinolone-resistant Acinetobacter baumannii T6474 by CLSI broth microdilution method; assay type: functional
Pseudomonas aeruginosa [8] = assay: Antibacterial activity against Pseudomonas aeruginosa ATCC 27853 by CLSI broth microdilution method; assay type: functional
[9] = Inhibition of wild-type Escherichia coli DNA gyrase supercoiling activity using relaxed pBR322 DNA as substrate by ethidium bromide based agarose gel electrophoresis
[10] = as §2
[11] = as §3
[12] = as §4
[13] = Lipophilicity, log D of the compound at pH 7.4; assay type: physicochemical; conditions: buffer

In the case of `COc1ccc2nccc([C@@H](N)C[C@@H]3CC[C@@H](NCc4ccc5c(n4)NC(=O)CO5)CO3)c2n1`, the inhibition (Acinetobacter baumannii [1]) is reported as “inactive”, the inhibition (Acinetobacter baumannii [2]) is reported as “inactive” and the inhibition (Pseudomonas aeruginosa [3]) is reported as “inactive”. For the same compound, the inhibition (Pseudomonas aeruginosa [4]) was “inactive”.
`COc1ccc2ccc(=O)n(C[C@H](O)[C@@H]3CC[C@@H](NCc4cc5c(cn4)OCCS5)CO3)c2n1` showed an IC50 [5] of 30 nM, an IC50 [6] of 30 nM and an MIC (Staphylococcus aureus) of at most 0.03 µg/mL. It also gave an MIC (Escherichia coli) of 4 µg/mL (≈ 8.25 µM), an MIC (Acinetobacter baumannii [7]) of 0.5 µg/mL (≈ 1.03 µM) and an MIC (Pseudomonas aeruginosa [8]) of over 8 µg/mL. For the same compound, the IC50 [9] was 500 nM, the IC50 [10] was 125 nM and the IC50 [11] was 500 nM. For the same compound, the IC50 [12] was at most 10 nM.
Work on `COc1ccc2ccc(=O)n(C[C@H](N)[C@@H]3CC[C@@H](NCc4ccc5c(n4)NC(=O)CO5)CO3)c2c1` yielded an IC50 [5] of 125 nM, an IC50 [6] of 30 nM and an MIC (Staphylococcus aureus) of 0.25 µg/mL (≈ 0.521 µM). The MIC (Escherichia coli) was 0.25 µg/mL (≈ 0.521 µM), the MIC (Acinetobacter baumannii [7]) was 2 µg/mL (≈ 4.17 µM) and the MIC (Pseudomonas aeruginosa [8]) was 4 µg/mL (≈ 8.34 µM). The IC50 [9] was 125 nM, the IC50 [10] was 125 nM and the IC50 [11] was 125 nM. For the same compound, the IC50 [12] was 500 nM.
Work on `COc1ccc2ncc(=O)n(C[C@H](N)[C@@H]3CC[C@@H](NCc4ccc5c(n4)NC(=O)CO5)CO3)c2c1` yielded an IC50 [5] of 125 nM, an IC50 [6] of 30 nM and an MIC (Staphylococcus aureus) of 0.063 µg/mL (≈ 0.131 µM). The MIC (Escherichia coli) was 0.25 µg/mL (≈ 0.52 µM), the MIC (Acinetobacter baumannii [7]) was 2 µg/mL (≈ 4.16 µM) and the MIC (Pseudomonas aeruginosa [8]) was 4 µg/mL (≈ 8.32 µM). For the same compound, the IC50 [9] was 500 nM, the IC50 [10] was 30 nM and the IC50 [11] was 30 nM. The IC50 [12] was 30 nM.
In the case of `COc1ccc2nccc([C@H](N)C[C@@H]3CC[C@@H](NCc4ccc5c(n4)NC(=O)CO5)CO3)c2n1`, the inhibition (Acinetobacter baumannii [1]) is reported as “inactive”, the inhibition (Acinetobacter baumannii [2]) is reported as “inactive” and the inhibition (Pseudomonas aeruginosa [3]) is reported as “inactive”. The inhibition (Pseudomonas aeruginosa [4]) was “inactive”.
In the case of `COc1ccc2ccc(F)c(C[C@H](N)[C@@H]3CC[C@@H](NCc4ccc5c(n4)NC(=O)CO5)CO3)c2n1`, the IC50 [5] is reported as 30 nM, the IC50 [6] is reported as at most 10 nM and the MIC (Staphylococcus aureus) is reported as 0.03 µg/mL (≈ 0.0623 µM). It also gave an MIC (Escherichia coli) of at most 0.03 µg/mL, an MIC (Acinetobacter baumannii [7]) of at most 0.03 µg/mL and an MIC (Pseudomonas aeruginosa [8]) of 1 µg/mL (≈ 2.08 µM). For the same compound, the IC50 [9] was 30 nM, the IC50 [10] was 30 nM and the IC50 [11] was 30 nM. For the same compound, the IC50 [12] was 30 nM.
`COc1ccc2ccc(=O)n(C[C@H](O)[C@@H]3CC[C@@H](NCc4cc5c(nn4)OCCO5)CO3)c2n1` showed an IC50 [5] of 8000 nM, an IC50 [6] of 2000 nM and an MIC (Staphylococcus aureus) of 0.06 µg/mL (≈ 0.128 µM). For the same compound, the MIC (Escherichia coli) was over 8 µg/mL, the MIC (Acinetobacter baumannii [7]) was over 8 µg/mL and the MIC (Pseudomonas aeruginosa [8]) was over 8 µg/mL. The IC50 [9] was 32000 nM, the IC50 [10] was 8000 nM and the IC50 [11] was 8000 nM. It also gave an IC50 [12] of 500 nM.
With `COc1ccc2ncc(F)c(C[C@H](O)[C@@H]3CC[C@@H](NCc4cc5c(nn4)OCCS5)CO3)c2n1` the IC50 [5] was 125 nM, the MIC (Acinetobacter baumannii [7]) was 2 µg/mL (≈ 4.1 µM) and the IC50 [10] was 2000 nM. It also gave an IC50 [11] of 500 nM and an IC50 [12] of 125 nM.
`O=C(O)c1cn(C2CC2)c2cc(N3CCNCC3)c(F)cc2c1=O` [CIPROFLOXACIN] showed an IC50 [5] of 32000 nM, an IC50 [10] of 2000 nM and an IC50 [11] of 500 nM. The IC50 [12] was 8000 nM.
Work on `COc1ccc2nccc(C(N)C[C@@H]3CC[C@@H](NCc4ccc5c(n4)NC(=O)CO5)CO3)c2n1` (mixture of isomers) yielded an IC50 [5] of 125 nM, an IC50 [6] of 125 nM and an MIC (Staphylococcus aureus) of 2 µg/mL. The MIC (Escherichia coli) was 1 µg/mL, the MIC (Acinetobacter baumannii [7]) was 8 µg/mL and the MIC (Pseudomonas aeruginosa [8]) was 8 µg/mL. It also gave an IC50 [9] of 8000 nM, an IC50 [10] of 2000 nM and an IC50 [11] of 500 nM. It also gave an IC50 [12] of 125 nM.
`COc1ccc2ncc(F)c(C[C@H](O)C34CCC(NCc5ccc6c(n5)NC(=O)CO6)(CC3)CO4)c2n1` gave a logD [13] of 2.
For `COc1ccc2ncc(=O)n(C[C@H](N)[C@@H]3CC[C@@H](NCc4ccc5c(n4)NC(=O)CO5)CO3)c2n1`, the IC50 [5] was 125 nM, the IC50 [6] was 125 nM and the MIC (Staphylococcus aureus) was 0.125 µg/mL (≈ 0.26 µM). The MIC (Escherichia coli) was 0.5 µg/mL (≈ 1.04 µM), the MIC (Acinetobacter baumannii [7]) was 2 µg/mL (≈ 4.15 µM) and the MIC (Pseudomonas aeruginosa [8]) was 2 µg/mL (≈ 4.15 µM). The IC50 [9] was 500 nM, the IC50 [10] was 125 nM and the IC50 [11] was 125 nM. The IC50 [12] was 30 nM.
Compound `COc1ccc2ccc(=O)n(C[C@H](O)[C@@H]3CC[C@@H](NCc4cc5c(cn4)OCCO5)CO3)c2n1` has an IC50 [5] of 125 nM, an IC50 [6] of 125 nM and an MIC (Staphylococcus aureus) of at most 0.03 µg/mL. For the same compound, the MIC (Escherichia coli) was 4 µg/mL (≈ 8.54 µM), the MIC (Acinetobacter baumannii [7]) was 0.5 µg/mL (≈ 1.07 µM) and the MIC (Pseudomonas aeruginosa [8]) was over 8 µg/mL. It also gave an IC50 [9] of 8000 nM, an IC50 [10] of 125 nM and an IC50 [11] of 125 nM. It also gave an IC50 [12] of 125 nM.
In the case of `COc1ccc2nccc(CC(N)[C@@H]3CC[C@@H](NCc4ccc5c(n4)NC(=O)CO5)CO3)c2n1` (mixture of isomers), the IC50 [5] is reported as 500 nM, the IC50 [6] is reported as 500 nM and the MIC (Staphylococcus aureus) is reported as 0.125 µg/mL. It also gave an MIC (Escherichia coli) of 0.125 µg/mL, an MIC (Acinetobacter baumannii [7]) of 0.5 µg/mL and an MIC (Pseudomonas aeruginosa [8]) of 2 µg/mL. The IC50 [9] was 500 nM, the IC50 [10] was 500 nM and the IC50 [11] was 500 nM. For the same compound, the IC50 [12] was 500 nM.
Work on `COc1cnc2ccc(=O)n(C[C@H](N)[C@@H]3CC[C@@H](NCc4ccc5c(n4)NC(=O)CO5)CO3)c2c1` yielded an IC50 [5] of 125 nM, an IC50 [6] of 30 nM and an MIC (Staphylococcus aureus) of 1 µg/mL (≈ 2.08 µM). It also gave an MIC (Escherichia coli) of 1 µg/mL (≈ 2.08 µM), an MIC (Acinetobacter baumannii [7]) of 4 µg/mL (≈ 8.32 µM) and an MIC (Pseudomonas aeruginosa [8]) of 4 µg/mL (≈ 8.32 µM). The IC50 [9] was 500 nM, the IC50 [10] was 30 nM and the IC50 [11] was 30 nM. The IC50 [12] was 30 nM.
For `COc1cnc2ccc(=O)n(C[C@H](N)[C@@H]3CC[C@@H](NCc4ccc5c(n4)NC(=O)CO5)CO3)c2n1`, the IC50 [5] was 30 nM, the IC50 [6] was 30 nM and the MIC (Staphylococcus aureus) was 0.5 µg/mL (≈ 1.04 µM). For the same compound, the MIC (Escherichia coli) was 0.5 µg/mL (≈ 1.04 µM), the MIC (Acinetobacter baumannii [7]) was 2 µg/mL (≈ 4.15 µM) and the MIC (Pseudomonas aeruginosa [8]) was 1 µg/mL (≈ 2.08 µM). It also gave an IC50 [9] of 500 nM, an IC50 [10] of 125 nM and an IC50 [11] of 125 nM. For the same compound, the IC50 [12] was 30 nM.
For `COc1ccc2nccc(C[C@H](N)[C@@H]3CC[C@@H](NCc4ccc5c(n4)NC(=O)CO5)CO3)c2n1`, the IC50 [5] was 30 nM, the IC50 [6] was 30 nM and the MIC (Staphylococcus aureus) was 0.06 µg/mL (≈ 0.129 µM). The MIC (Escherichia coli) was 0.125 µg/mL (≈ 0.269 µM), the MIC (Acinetobacter baumannii [7]) was 0.25 µg/mL (≈ 0.538 µM) and the MIC (Pseudomonas aeruginosa [8]) was 0.5 µg/mL (≈ 1.08 µM). It also gave an IC50 [9] of 125 nM, an IC50 [10] of 125 nM and an IC50 [11] of 125 nM. For the same compound, the IC50 [12] was 30 nM.
In the case of `COc1ccc2ncc(F)c(C[C@@H](N)[C@@H]3CC[C@@H](NCc4ccc5c(n4)NC(=O)CO5)CO3)c2n1`, the IC50 [5] is reported as 125 nM, the IC50 [6] is reported as 125 nM and the MIC (Staphylococcus aureus) is reported as 1 µg/mL (≈ 2.07 µM). For the same compound, the MIC (Escherichia coli) was 1 µg/mL (≈ 2.07 µM), the MIC (Acinetobacter baumannii [7]) was 1 µg/mL (≈ 2.07 µM) and the MIC (Pseudomonas aeruginosa [8]) was over 8 µg/mL. For the same compound, the IC50 [9] was 500 nM, the IC50 [10] was 500 nM and the IC50 [11] was 125 nM. For the same compound, the IC50 [12] was 125 nM.
Compound `COc1ccc2ccc(=O)n(C[C@H](O)[C@@H]3CC[C@@H](NCc4cc5c(nn4)OCCS5)CO3)c2n1` has an IC50 [5] of 500 nM, an IC50 [6] of 125 nM and an MIC (Staphylococcus aureus) of 0.031 µg/mL (≈ 0.0638 µM). The MIC (Escherichia coli) was over 8 µg/mL, the MIC (Acinetobacter baumannii [7]) was 8 µg/mL (≈ 16.5 µM) and the MIC (Pseudomonas aeruginosa [8]) was over 8 µg/mL. For the same compound, the IC50 [9] was 8000 nM, the IC50 [10] was 2000 nM and the IC50 [11] was 500 nM. The IC50 [12] was 125 nM.
